Ends that are not written are not given here.
Assays:
Langerhans islets = experiment: Insulin secretion-promoting activity in isolated Langerhans islets; format: cell-based, ICR mouse; details: 16.7 mM glucose, 37° C. 30 min, FIG. 13
Excerpt: Langerhans islets were extracted from ICR mouse pancreas with collagenase, 2 to 3 Langerhans islets were placed per well of 24-well plates, and cultured overnight.

DPP-IV = DPP-IV (Sus scrofa, UniProt P22411)
trypsin [1] = target: T1, trypsin (Sus scrofa, UniProt P00761); details: pH 7.8
Method: 5 μl of 500 μg/ml trypsin solution (Promega: Cat. No. V5113) was added to 100 μl of this solution, and reacted at 37° C. for 1 hour. The reaction was stopped by adding 1200 μl of 71.5% ethanol (final 65%). The supernatant was collected by centrifugation at 15,000 rpm at 4° C. for 5 min, and evaporation was carried out. The dried solids were dissolved in distilled water and used for measuring activity.
The reaction was stopped by adding 1200 μl of 71.5% ethanol (final 65%). The supernatant was collected by centrifugation of 15,000 rpm at 4° C. for 5 min and evaporation was carried out. The dried solids were dissolved in distilled water and used for measuring the activity.

[2] = Hypoglycemic effect in oral glucose tolerance test (OGTT) by subcutaneous administration; format: in vivo; details: mice fasted overnight, 1 g/kg glucose orally, peptide 5, 20 μg/kg dorsal subcutaneously; FIG. 14
Method: Physiological saline was administered to the control group. Before loading glucose and 20, 60, 120 min after loading, blood was collected chronologically from subocular venous plexus, to measure blood glucose level. […] Moreover, the action continued until 120 min after the administration (FIG. 15).

human GLP-1 receptor = target: T2, human GLP-1 receptor (Homo sapiens, UniProt P43220); experiment: Cyclic AMP production activity in CHO-K1 cells expressing human GLP-1 receptors; format: cell-based; details: compared with native GLP-1; 37° C. 30 min; FIG. 7
T2 construct: expressed in transfected cells; host or cells: Chinese hamster ovary CHO-K1 cells
Method: 10 μl of 5N hydrochloric acid was added to the buffer to stop the incubation.

trypsin [3] = target: T1, trypsin
Method: To this diluent, 6 μl of 83 μg/ml trypsin solution (Promega: Cat. No. V5113) was added. The resultant was reacted at 37° C. for 1, 2, 4, 6 or 20 hours, and then the reaction was stopped by adding 1200 μl of 71.5% ethanol (final 65%). The supernatant was collected by centrifugation at 15,000 rpm at 4° C. for 5 min and evaporation was carried out. The dried solids were dissolved in distilled water and the activity was measured.

T1 sequence (P00761 9-231): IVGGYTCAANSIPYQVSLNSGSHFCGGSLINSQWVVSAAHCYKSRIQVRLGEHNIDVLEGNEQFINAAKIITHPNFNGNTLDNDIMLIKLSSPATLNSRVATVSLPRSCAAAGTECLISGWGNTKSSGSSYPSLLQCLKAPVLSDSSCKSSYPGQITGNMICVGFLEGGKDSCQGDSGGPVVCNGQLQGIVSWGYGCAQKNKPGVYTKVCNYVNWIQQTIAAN
Chain of DPP-IV (P22411 whole entry): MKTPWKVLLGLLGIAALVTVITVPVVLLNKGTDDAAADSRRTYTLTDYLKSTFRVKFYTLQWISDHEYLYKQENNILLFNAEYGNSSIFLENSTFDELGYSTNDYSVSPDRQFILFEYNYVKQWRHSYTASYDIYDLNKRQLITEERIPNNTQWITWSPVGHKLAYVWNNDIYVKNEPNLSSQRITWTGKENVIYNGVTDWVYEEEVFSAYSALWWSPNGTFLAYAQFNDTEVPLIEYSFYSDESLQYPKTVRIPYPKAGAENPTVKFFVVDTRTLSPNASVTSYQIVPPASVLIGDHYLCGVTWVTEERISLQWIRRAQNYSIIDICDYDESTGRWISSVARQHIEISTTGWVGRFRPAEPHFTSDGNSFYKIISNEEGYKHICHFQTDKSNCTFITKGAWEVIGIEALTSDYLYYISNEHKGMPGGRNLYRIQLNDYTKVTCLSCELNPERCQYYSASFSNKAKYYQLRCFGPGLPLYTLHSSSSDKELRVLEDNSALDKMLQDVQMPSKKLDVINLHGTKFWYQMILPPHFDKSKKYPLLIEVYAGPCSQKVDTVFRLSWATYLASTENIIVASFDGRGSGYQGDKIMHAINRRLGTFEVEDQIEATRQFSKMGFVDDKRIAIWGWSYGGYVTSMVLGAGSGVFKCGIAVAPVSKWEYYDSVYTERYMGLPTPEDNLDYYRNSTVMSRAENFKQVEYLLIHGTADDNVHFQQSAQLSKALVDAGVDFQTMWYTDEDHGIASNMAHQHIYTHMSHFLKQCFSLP
T2 sequence (P43220 24-463): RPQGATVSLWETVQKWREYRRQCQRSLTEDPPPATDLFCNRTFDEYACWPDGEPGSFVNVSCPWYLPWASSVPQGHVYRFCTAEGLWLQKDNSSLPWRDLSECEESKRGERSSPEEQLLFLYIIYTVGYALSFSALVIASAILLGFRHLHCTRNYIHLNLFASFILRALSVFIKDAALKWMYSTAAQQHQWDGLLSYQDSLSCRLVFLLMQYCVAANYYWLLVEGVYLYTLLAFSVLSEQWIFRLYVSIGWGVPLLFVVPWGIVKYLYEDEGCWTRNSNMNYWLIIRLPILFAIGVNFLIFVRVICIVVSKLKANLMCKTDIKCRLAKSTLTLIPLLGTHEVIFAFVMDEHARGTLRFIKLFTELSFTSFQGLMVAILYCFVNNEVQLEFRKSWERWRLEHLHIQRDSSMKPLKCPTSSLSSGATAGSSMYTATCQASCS

For “GLP-1 (7-36 amide) (HAEGTFTSDVSSYLEGQAAKEFIAWLVKGR-NH2) [native GLP-1, made by solid phase synthesis, reference compound]”, which insulin secretion-promoting activity (Langerhans islets) is on record?
The insulin secretion-promoting activity was “Amount-dependent insulin secretion-promoting activity”.

With “HSEGTFTSDVSSYLEGQAAQEFIAWLVNGR-OH [[Ser^8, Gln^26, Asn^34]-GLP-1 (7-36), [Ser^8, Gln^26, Asn^34]-GLP-1 (7-36)]” as the substance, how does the DPP-IV resistance (DPP-IV) read?
Its DPP-IV resistance is “obvious DPP-IV resistance”.

And the insulin secretion-promoting activity (Langerhans islets)?
Its insulin secretion-promoting activity is “Amount-dependent insulin secretion-promoting activity”.

And the “insulin secretion-promoting activity at high concentration” value (Langerhans islets; high concentration)?
The value was “strong insulin secretion-promoting activity”.

And the “variation in activity by trypsin treatment (trypsin resistance)” value (trypsin [1])?
The value was “no variation in activity by trypsin treatment”.

And the “peak value of blood glucose increase / hypoglycemic action” value [2]?
Its value is “strong action”.

For “HAEGTFTSDVSSYLEGQAAQEFIAWLVNGR-NH2 [[Gln^26, Asn^34]-GLP-1 (7-36 amide)]”, which “cyclic AMP production activity” value (human GLP-1 receptor) is on record?
Its value is “same level of cyclic AMP production activity as native GLP-1”.

And the “activity before and after trypsin treatment (trypsin resistance)” value (trypsin [1])?
Its value is “no difference of activity before and after trypsin treatment”.

For [Ser^8, Gln^26, Asp^34]-GLP-1 (7-36), which DPP-IV resistance (DPP-IV) is on record?
The DPP-IV resistance was “obvious DPP-IV resistance”.

And the insulin secretion-promoting activity (Langerhans islets)?
The insulin secretion-promoting activity was “Amount-dependent insulin secretion-promoting activity”.

What about the “variation in activity by trypsin treatment (trypsin resistance)” value (trypsin [1]) of the same substance?
The value was “no variation in activity by trypsin treatment”.

And the “cyclic AMP production activity versus trypsin treatment time” value (trypsin [3])?
Its value is “the activity was maintained regardless of the trypsin treatment time”.
